Experimental data from paper PMC11984392, “EphA2-targeted alpha-particle theranostics for enhancing PDAC treatment” (Theranostics, 2025).
Like-named read-outs stand apart in the source and are kept apart here. *1 amine or outer side, *2 acyl side, *3 side chain or, on linkers, in order; H or OH if unused. Where a SMILES comes first, the peptide text is derived from it. Bridges are numbered along the chain shown (N, C = ends). [ ]: non-standard residue; d: D form. The star is where a group is joined. TATA = O=C(CC[*:1])N1CN(C(=O)CC[*:2])CN(C(=O)CC[*:3])C1; NOTA = O=C(O)CN1CCN(CC(=O)O)CCN(CC(=O)*)CC1; Hyp = O=C(O)[C@@H]1C[C@@H](O)CN1; hArg = N=C(N)NCCCC[C@H](N)C(=O)O; PEG2 = NCCOCCOCCC(=O)O; Sar = CNCC(=O)O

What was measured:
[1] = test system: CFPAC cells; experiment: In vitro binding assay with Ga-68 radiotracer; type: cell-based, human; conditions: 1 µCi, 60 min, 4 °C, mean ± SD (n = 3-4)
Method: (§1) In vitro binding assays were performed to determine the binding of [^68Ga]AJ201 and [^68Ga]AJ210 to Jurkat and PDAC cell lines. Approximately 1 μCi of radiotracer was incubated with cells in 100 μL culture media for 60 min at 4 °C. After incubation, cells were washed three times with ice cold PBS and counted on an automated gamma counter (1282 Compugamma CS, Pharmacia/LKBNuclear, Inc., Gaithersburg, MD). […] For kinetic study, 8×10^6 Panc1 cells/vial were incubated with approximately 8 μCi/vial of [^68Ga]AJ201 in culture media in triplicates at 37 °C and 4 °C in separate tubes. 1×10^6 cells were aliquoted at predetermined timepoints (5, 15, 30, 60 min). Excess radioactivity was removed by washing three times with PBS. Activity in cell pellets were measured on an automated gamma counter.

[2] = test system: BxPC3 cells; experiment: In vitro binding assay with Ga-68 radiotracer; type: cell-based, human; conditions: 1 µCi, 60 min, 4 °C, mean ± SD (n = 3-4)
Method: as §1

[3] = test system: Hs766T cells; experiment: In vitro binding assay with Ga-68 radiotracer; type: cell-based, human; conditions: 1 µCi, 60 min, 4 °C, mean ± SD (n = 3-4)
Method: as §1

[4] = test system: Panc1005 cells; experiment: In vitro binding assay with Ga-68 radiotracer; type: cell-based, human; conditions: 1 µCi, 60 min, 4 °C, mean ± SD (n = 3-4)
Method: as §1

[5] = test system: Su8686 cells; experiment: In vitro binding assay with Ga-68 radiotracer; type: cell-based, human; conditions: 1 µCi, 60 min, 4 °C, mean ± SD (n = 3-4)
Method: as §1

[6] = test system: AsPC1 cells; experiment: In vitro binding assay with Ga-68 radiotracer; type: cell-based, human; conditions: 1 µCi, 60 min, 4 °C, mean ± SD (n = 3-4)
Method: as §1

[7] = test system: Panc1 cells; experiment: In vitro binding assay with Ga-68 radiotracer; type: cell-based, human
Method: as §1

[8] = test system: Jurkat cells; experiment: In vitro binding assay with Ga-68 radiotracer; type: cell-based, human; conditions: Jurkat (negative control cells); 1 µCi, 60 min, 4 °C; mean ± SD (n = 3-4)
Method: as §1

[9] = Ex vivo biodistribution; type: in vivo, mice; conditions: mouse, in vivo, total radioactivity, KPC syngeneic tumor, 60 min p.i., mean ± SEM (n = 5)
Method: (§2) Mice with 100-200 mm^3 tumor volume were used for ex vivo biodistribution studies. For radiotracer pharmacokinetics and dosimetry studies, mice with Panc1 tumor xenograft received ~80 µCi (2.96 MBq) [^68Ga]AJ201 and were sacrificed at pre-determined time points (5, 30, 60, 90 and 120 min). All other mice were injected with ~50 µCi (1.85 MBq; 0.2 to 0.5 nmol) Ga-68 labeled radiotracer and were sacrificed at 60 min. The selected tissues were collected, weighed, counted, and their %ID/g values calculated for biodistribution analysis. For pharmacokinetics and dosimetry studies, selected tissues included blood, muscle, tumor, thymus, heart, lung, liver, pancreas, stomach, small intestine, large intestine, spleen, adrenals, kidney, bladder, femur, brain and tumor xenografts. For other studies, selected tissues were blood, muscle, tumor, heart, lung, liver, pancreas, small intestine, spleen, kidney.

[10] = test system: KPC syngeneic tumor; experiment: Ex vivo biodistribution; type: in vivo, mice; conditions: KPC syngeneic tumor; 60 min p.i.; mean ± SEM (n = 5)
Method: as §2

[11] = test system: Panc1 tumor xenografts; experiment: Whole-body dynamic PET pharmacokinetics; type: in vivo, NSG mice; conditions: ~250 µCi i.v., remaining constant until 90 min
Method: Dynamic PET images were acquired on a Simultaneous 7T Bruker PET-MR scanner to evaluate the pharmacokinetics of [^68Ga]AJ201. Mice bearing Panc1 tumor xenografts were anesthetized under 2.5% isoflurane and a catheter was fixed in the tail vein before being secured on the PET-MR bed. An activity of ~250 µCi (9.3 MBq; 0.5 to 0.8 nmol) of [^68Ga]AJ201 was administered intravenously and whole-body PET dynamic scans were performed. Dynamic PET scans were initiated one min before radiotracer injection and acquired at varying intervals to capture early and late-phase kinetics: every 30 s from -1 to 5 min, every min from 5 to 15 min, every 3 min from 15 to 30 min, every 5 min from 30 to 60 min, and every 10 min from 60 to 90 min. The acquired PET data were reconstructed and corrected for radioactive decay and dead time using ParaVision 360 V2 by Bruker. The percentage of injected dose per cc (%ID/cc) values were obtained by drawing ROI on the tumor, muscle, heart, liver and kidney using PMOD software, and image fusion and visualization were also performed using PMOD software.

[12] = PET-MR imaging of Panc1 orthotopic tumor model; type: in vivo, mice; conditions: both sexes, NSG, mouse, iv, total radioactivity, PET/MR 60 min p.i., ROI (n = 4)
Method: Animal studies were performed under Johns Hopkins University Animal Care and Use Committee (ACUC)-approved protocol (Principal investigator: Sridhar Nimmagadda, Ph.D. and Protocol number M021M175). Male and Female NSG mice (5-6 weeks old) were purchased from JHU immunocompromised core and used to establish xenografts by administering cells subcutaneously (top right flank, unless otherwise noted) to form various tumor models within 3-4 weeks. Following cell numbers were used: Panc1, AsPC1, BxPC3 (1 M), Hs766T and SU8686 (2 M), CFPAC and Panc1005 (5 M). Imaging or biodistribution studies (n = 3-5) were conducted on mice with tumor volumes of 100-200 mm^3. The Panc1 orthotopic tumor model was established by surgically implanting a 3-5 mm^3 section of Panc1 tumor xenograft directly onto the pancreas. The implanted tumors were allowed to grow and were ready for imaging after 10 days of implantation.
Mice having orthotopic panc1 tumors were injected intravenously with [^68Ga]AJ201 and PET images were acquired at 60 min after radiotracer injection for 10 min in 1 bed positions (full body) and whole-body MRI using a Simultaneous 7T Bruker PET-MR. The PET data were acquired, reconstructed, and corrected for radioactive decay using ParaVision 360 V2 by Bruker. The %ID per cc values were obtained after drawing ROI (regain of interest) in tumor and muscle using PMOD software. […]

In the case of `CC(C)C[C@@H]1NC(=O)[C@@H]2CSCCC(=O)N3CN(CN(C3)C(=O)CCSC[C@H](NC(=O)[C@H](CC(=O)O)NC(=O)[C@H](CCCCNC(=N)N)NC(=O)[C@H](C)NC(=O)CNC(=O)CN(C)C(=O)CN(C)C(=O)CN(C)C(=O)[C@H](CCCNC(=N)N)NC(=O)CNC(=O)CCOCCOCCNC(=O)CN3CCN(CC(=O)O)CCN(CC(=O)O)CC3)C(=O)N3C[C@H](O)C[C@H]3C(=O)N[C@@H](CC(C)C)C(=O)N[C@@H](C(C)C)C(=O)N[C@@H](CC(N)=O)C(=O)N3CCC[C@H]3C(=O)N[C@@H](CC(C)C)C(=O)N2)C(=O)CCSC[C@@H](C(N)=O)NC(=O)[C@H](CCCCNC(=N)N)NC(=O)[C@H](Cc2c[nH]c3ccccc23)NC(=O)[C@@H](CC(=O)O)NC(=O)[C@@H]2CCCN2C(=O)[C@H](Cc2c[nH]cn2)NC1=O` [[^68Ga]AJ201, metal not drawn] ({NOTA-PEG2}-GR[Sar][Sar][Sar]GA[hArg]DC[Hyp]LVNPLCLHP[dD]W[hArg]C-NH2; linker 10-17-24 via TATA), the “Cell binding (percent incubated activity)” value [1] is reported as 1.7 ± 0.3 %IA, the “Cell binding (percent incubated activity)” value [2] is reported as 5.9 ± 0.2 %IA and the “Cell binding (percent incubated activity)” value [3] is reported as 7.2 ± 0.6 %IA. The “Cell binding (percent incubated activity)” value [4] was 4.7 ± 0.1 %IA, the “Cell binding (percent incubated activity)” value [5] was 22.0 ± 1.1 %IA and the “Cell binding (percent incubated activity)” value [6] was 9.9 ± 1.2 %IA. For the same compound, the “Time to uptake stabilization in Panc1 cells” value ([7]; 4 °C, time points 5, 15, 30, 60 min) was “around 30 min”, the “Time to uptake equilibrium in Panc1 cells” value ([7]; 37 °C, time points 5, 15, 30, 60 min) was ≤ 15 min and the “Reduction of binding to Panc1 cells by blocking” value ([7]; in the presence of non-radioactive AJ201 (2 µM), P<0.0001) was “more than 95%”. For the same compound, the “Cell binding (percent incubated activity)” value [8] was 0.8 ± 0.1 %IA, the tissue uptake at 1 h ([9]; 50 uCi, read-out: Bladder uptake) was 74.9 ± 15.3 %ID/g and the tissue uptake at 1 h ([9]; 50 uCi, read-out: Femur uptake) was 0.71 ± 0.22 %ID/g. It also gave a tissue uptake at 1 h ([9]; 50 uCi, read-out: Heart uptake) of 0.3 ± 0.06 %ID/g, a tissue uptake at 1 h ([9]; 50 uCi, read-out: Kidney uptake) of 50.3 ± 9.75 %ID/g and a tissue uptake at 1 h ([9]; 50 uCi, read-out: Liver uptake) of 2.46 ± 0.77 %ID/g. The tissue uptake at 1 h ([9]; 50 uCi, read-out: Lung uptake) was 0.78 ± 0.13 %ID/g, the tissue uptake at 1 h ([9]; 50 uCi, read-out: Muscle uptake) was 0.28 ± 0.08 %ID/g and the tissue uptake at 1 h ([9]; 50 uCi, read-out: Pancreas uptake) was 0.22 ± 0.04 %ID/g. For the same compound, the tissue uptake at 1 h ([9]; 50 uCi, read-out: Small intestine uptake) was 0.62 ± 0.25 %ID/g, the tissue uptake at 1 h ([9]; 50 uCi, read-out: Stomach uptake) was 0.95 ± 0.26 %ID/g and the tissue uptake at 1 h ([9]; 50 uCi, read-out: Tumor uptake) was 1.51 ± 0.28 %ID/g. For the same compound, the tissue to tissue ratio at 1 h ([9]; 50 uCi, read-out: Tumor/Muscle ratio) was 6 ± 0.77, the tissue to tissue ratio at 1 h ([9]; 50 uCi, read-out: Tumor/Pancreas ratio) was 6.67 ± 2.18 and the tissue to tissue ratio at 1 h ([9]; 50 uCi, read-out: Tumor/blood ratio) was 2.17 ± 0.46. The tissue uptake at 1 h ([9]; read-out: Blood uptake) was 0.75 ± 0.15 %ID/g, the tissue uptake at 1 h ([9]; read-out: Large Intestine uptake) was 0.61 ± 0.28 %ID/g and the tissue uptake at 1 h ([9]; read-out: Spleen uptake) was 0.71 ± 0.3 %ID/g. For the same compound, the Brain uptake [10] was 0.04 ± 0.01 %ID/g, the “Time of peak tumor radioactivity (ROI analysis)” value [11] was 30 min and the tissue to tissue ratio at 1 h ([12]; tumor and muscle, read-out: Tumor-to-muscle ratio) was 14.8 ± 4.46. The tissue to tissue ratio at 1 h ([12]; tumor and pancreas, read-out: Tumor-to-pancreas ratio) was 10.3 ± 2.24.
